Measurements reported in patent publication US20230330064A1, “TYROSINE, TRYPTOPHAN AND PHENYLALANINE AS mTOR AGONISTS MEDIATING PROTEASOME DYNAMICS, COMPOSITIONS, METHODS AND USES THEREOF IN THERAPY, AND PROGNOSTIC METHODS FOR DRUG-RESISTANCE” (Technion Research & Development Foundation Limited, priority 2020, published 2023).

Experiments:
tumors = assay: Tumor model in mice, YWF versus various concentrations of F; assay type: in vivo; conditions: various concentrations up to 45 mM
Procedure: The anti-tumorigenic effect of the indicated treatments was examined in vivo, using a tumor model in mice.
The inventors next aimed to assess the anti-tumorigenic effect of the above treatments in vivo, using a tumor model in mice. Following tumor formation, each group was treated with a different treatment, and the size of tumors was eventually compared relative to the control group (QLR).

cancer cells = assay: Cell viability of stressed (starved) and non-stressed cancer cells, YWF versus 45 mM F or W
Procedure: Since tumor cells are inherently stressed—due to high metabolic demands and poor perfusion of nutrients and oxygen, starved cells in culture were used in order to simulate the effect of the different treatments. Similarly, to simulation of the effect of each treatment on “normal” tissues in vivo—which are not stressed—the same amino acid(s) were added to non-starved cells in culture.

26S proteasome = assay: Proteasome subcellular localization in cultured cells (immunofluorescence, western blot of nuclear fractions); assay type: cell-based; conditions: for starvation-induced proteasome translocation from the nucleus to the cytosol: substance added to amino acid starvation medium, 8 h
Procedure: (§1) Cells were seeded on glass cover slips for 36 h. Following the indicated treatments, they were fixed with 4% PFA for 15 min, washed with (phosphate-buffered saline) PBS and incubated in PBS containing 10% goat serum for 1h at room temperature, followed by 2 h incubation with the indicated primary antibody. Following extensive wash with PBS, the fixed cells were incubated with the relevant secondary antibody for 1 h, washed and mounted. Images were acquired using Zeiss LSM 700 confocal microscope (Zeiss, Oberkochen, Germany).
The proteasome subunits α6, β1, and PSMD1 were visualized via indirect immunofluorescence, using primary and secondary antibodies listed under Key Resources Table. To observe the proteasome in live cells, we expressed the cDNAs of the β4, Rpn2, Rpn6, and Rpn13 proteasome subunits C-terminally fused with GFP. Photoconversion of proteasome-fused Dendra2 was carried out as previously described (McKinney et al., 2009 Nat Methods. 131-133).
Cells were incubated for 20 min in fractionation buffer [20 mM HEPES pH 7.3, 10 mM KCl, 5 mM ATP, 5 mM MgCl2, and protease inhibitor cocktail (Roche)], followed by the addition of NP-40 (to 0.1%). They were then mixed thoroughly and centrifuged at 1,000×g for 5 min. The supernatant was collected as cytosolic fraction, and the pellet (nuclei) was washed twice with PBS. To dissolve the nuclear pellet, fractionation buffer supplemented with 0.5% sodium deoxycholate was added followed by sonication.
(§2) Cells were washed twice with ice cold PBS and scraped into lysis buffer (50 mM Tris-HCl, pH 7.4, 130 mM NaCl, 0.5% NP-40) supplemented with freshly added protease inhibitor cocktail, 5 mM ATP, 10 mM iodoacetamide, and 5 mM N-ethyl maleimide. Protein concentration was measured by the BCA assay according to the manufacturer's instructions (Pierce, Rockford, IL). 30 μg of cellular protein were resolved via SDS-PAGE, transferred to a nitrocellulose membrane and immunoblotted with the appropriate antibody.

[1] = Amino acids level measurement (LC-MS); assay type: cell-based; conditions: Torin1-treated cells
Procedure: Metabolic analysis was carried out as previously described (MacKay et al., 2015). Briefly, cells were rapidly washed 3 times with ice-cold PBS and extracted with an aqueous solution of 50% Methanol, and 30% Acetonitrile. Samples were centrifuged at 16,000×g for 10 min at 4° C., and the supernatants were analyzed using HPLC-MS (Q-Exactive Orbitrap Mass Spectrometer (Thermo Scientific) coupled to Thermo Scientific UltiMate 3000 HPLC system). The HPLC setup consisted of a ZIC-pHILIC column (SeQuant, 150×2.1 mm, 5 μm, Merck) with a ZIC-pHILIC guard column (SeQuant, 20×2.1 mm). The aqueous mobile phase solvent was 20 mM ammonium carbonate adjusted to pH 9.4 with 0.1% ammonium hydroxide. The organic mobile phase was acetonitrile. […] All metabolites were detected across a mass range of 75-1,000 m/z using the Q-Exactive mass spectrometer at a resolution of 35,000 (at 200 m/z) with electrospray ionization and polarity switching mode. […] The peak areas of different Amino Acids were determined using Thermo TraceFinder software through which metabolites were identified by the exact mass of the singly charged ion and by known retention time on the HPLC column. Commercially available standard compounds had been analyzed before to determine ion masses and retention times on the ZIC-pHILIC column. Protein quantitation based on the Lowry method was performed for normalization.

exportin-1 = target: T1, exportin-1 (Homo sapiens, UniProt O14980); assay: Nuclear export of exportin-1 substrates (p65, APC, NES-GFP) in HeLa cells; assay type: cell-based; conditions: 8 h
T1 construct: endogenous in cells; host or cells: HeLa
Procedure: FIG. 4G. HeLa cells were incubated under the indicated conditions, and the β4 subunit of the proteasome as well as the p65 subunit of NF-κB—which is a CRM1 substrate—were visualized.
FIG. 4H. HeLa cells were incubated under the indicated conditions, and the β4 subunit of the proteasome as well as the CRM1 substrate APC (adenomatous polyposis coli) were visualized.
FIG. 4I. HeLa cells infected with GFP fused to a nuclear export signal (NES) were incubated for 8h under the indicated conditions. The GFP was visualized.
as §1

cellular proteins [2] = assay: Proteomic analysis of cellular protein levels; assay type: cell-based, human; conditions: amino acid starvation
Procedure: 2-3 mg of cell extract protein in 8 M Urea and 100 mM ammonium bicarbonate, were incubated with DTT (2.8 mM; 30 min at 60° C.), modified with iodoacetamide (8.8 mM; 30 min at room temperature in the dark), and digested (overnight at 37° C.) with modified trypsin (Promega; 1:50 enzyme-to-substrate ratio) in 2 M Urea and 25 mM ammonium bicarbonate. Additional second trypsinization was carried out for 4 hours. The tryptic peptides were desalted using Sep-Pak C18 (Waters) and dried. 10 μg of protein were used for proteome analysis as described under Mass spectrometry.
Tryptic peptides were analyzed by LC-MS/MS using a Q Exactive plus mass spectrometer (Thermo Fisher Scientific) fitted with a capillary HPLC (easy nLC 1000, Thermo). […]
The mass spectrometry raw data were analyzed by the MaxQuant software (version 1.4.1.2, http://www.maxquant.org) for peak picking and quantification. […] The MaxQuant software was used for label-free semi-quantitative analysis [based on extracted ion currents (XICs) of peptides], enabling quantification from each LC/MS run for each peptide identified in any of the experiments. In samples that were SILAC-labeled, quantification was also carried out using the MaxQuant software. […]

proteasome = assay: Live imaging of proteasome activity probe Me4BodipyFL-Ahx3Leu3VS in cells; assay type: cell-based; conditions: added to the starvation medium
Procedure: Live cell proteasome activity was followed as previously described (Berkers et al., 2007, Mol Pharm; 4(5):739-48.). In brief, Me4BodipyFL-Ahx3Leu3VS was added to the medium to a final concentration of 1 μM. Following incubation for 15 min, the cells were visualized by a Zeiss LSM 700 confocal microscope. In vitro proteasome activity assay was carried out as previously described (Braten et al., 2016). In brief, cellular fractions were incubated at 37° C. for 30 min with 5 μM Suc-LLVY-AMC (Succinyl-Lu-Leu-Val-Tyr-amido-4-methylcoumarin) in a reaction buffer (40 mM Tris-HCl pH 7.2, 2 mM DTT, 5 mM MgCl2, 10 mM creatine phosphate, 0.1 mg/ml creatine phosphate kinase, 5 mM ATP). Reactions were stopped by adding 1% SDS, and fluorescence was measured at 360 nm/460 nm (ex/em).

ubiquitin adducts = assay: Western blot for ubiquitin adducts; assay type: cell-based; conditions: starved cells
Procedure: FIG. 5E. Western blot for ubiquitin adducts of extracts of cells treated as indicated. Intensities relative to control are presented.
as §2

cellular proteins [3] = assay: Degradation of radiolabeled cellular proteins; assay type: cell-based; conditions: starved cells
Procedure: Cells were labeled with […] methionine and cysteine (20 μCi/ml) for 16 h. This was followed extensive washing and further incubation in a medium containing 2 mM of the two unlabeled amino acids for 8 h. Degradation rates were assessed by determining the release of labeled amino acids to the incubation medium relative to the radioactivity remained in the cellular proteins (using Trichloroacetic acid precipitation to separate between the two) (Gropper et al., 1991, JPEN J Parenter Enteral Nutr 15, 48-53.).

MCF-7 = conditions: cited from earlier work

T1 sequence (O14980 whole entry): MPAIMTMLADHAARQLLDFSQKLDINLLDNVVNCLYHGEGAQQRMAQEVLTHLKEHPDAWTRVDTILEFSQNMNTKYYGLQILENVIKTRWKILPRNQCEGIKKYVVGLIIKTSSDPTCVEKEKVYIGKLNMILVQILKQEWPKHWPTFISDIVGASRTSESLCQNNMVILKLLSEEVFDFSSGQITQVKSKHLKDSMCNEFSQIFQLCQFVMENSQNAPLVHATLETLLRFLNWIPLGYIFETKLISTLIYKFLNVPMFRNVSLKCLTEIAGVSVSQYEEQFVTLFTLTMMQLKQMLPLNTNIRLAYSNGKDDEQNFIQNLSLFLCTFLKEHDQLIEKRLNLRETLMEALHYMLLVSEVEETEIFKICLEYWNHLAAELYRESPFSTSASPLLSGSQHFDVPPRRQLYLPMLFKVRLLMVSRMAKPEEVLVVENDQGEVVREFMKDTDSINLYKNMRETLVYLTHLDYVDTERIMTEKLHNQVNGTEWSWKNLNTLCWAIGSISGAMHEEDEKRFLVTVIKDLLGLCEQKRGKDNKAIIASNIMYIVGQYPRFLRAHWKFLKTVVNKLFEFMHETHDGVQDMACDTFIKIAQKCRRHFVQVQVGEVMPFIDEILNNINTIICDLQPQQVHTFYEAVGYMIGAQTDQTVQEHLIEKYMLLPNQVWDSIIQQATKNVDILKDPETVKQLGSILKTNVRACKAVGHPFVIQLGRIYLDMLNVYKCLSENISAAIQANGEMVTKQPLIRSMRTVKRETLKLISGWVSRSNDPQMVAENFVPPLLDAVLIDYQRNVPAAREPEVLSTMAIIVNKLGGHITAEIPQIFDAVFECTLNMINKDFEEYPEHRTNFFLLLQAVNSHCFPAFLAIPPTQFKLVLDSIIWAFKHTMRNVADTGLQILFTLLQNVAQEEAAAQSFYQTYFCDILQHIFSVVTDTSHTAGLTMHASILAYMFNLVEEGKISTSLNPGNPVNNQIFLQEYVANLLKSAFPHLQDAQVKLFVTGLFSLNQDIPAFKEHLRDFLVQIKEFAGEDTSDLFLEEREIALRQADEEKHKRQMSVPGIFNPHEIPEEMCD

Row | Compound | benefit on tumor growth relative to control group (QLR) (tumors) | elimination of stressed cancerous cells in culture (cancer cells) | starvation-induced proteasome translocation from the nucleus to the cytosol (26S proteasome) | gain in amino acids produced by Torin1 [1] | cellular distribution of GFP fused to nuclear export signal (NES) (exportin-1) | starvation-induced reduction in the level of ~900 proteins (cellular proteins [2]) | migration of proteasomal activity from the nucleus (proteasome) | degradation and depletion of ubiquitin adducts (ubiquitin adducts) | proteasome distribution in cells lacking NUP93 (26S proteasome; NUP93 silenced, starvation) | proteasome localization without exogenous starvation (26S proteasome; non-stressed cells, complete medium) | starvation-induced stimulation of protein breakdown (cellular proteins [3]) | growth of MCF-7 cells (MCF-7)
1 | N[C@@H](Cc1ccccc1)C(=O)O [Phe, Phenylalanine] | did not result in any benefit | clearly inferior to the mixture of YWF | significant effect | – | – | – | – | – | – | – | – | –
2 | CCC(=C/[C@H](C)C/C=C/C(C)=C/[C@@H](C)C(=O)[C@@H](C)[C@H](O)[C@@H](C)C/C(C)=C/C(=O)O)/C=C/[C@@H]1OC(=O)C=C[C@@H]1C [LMB, Leptomycin B] | – | – | inhibition of the translocation | significantly inhibits the gain in amino acids | leads to nuclear accumulation | prevented | inhibits the migration of proteasomal activity from the nucleus | inhibits degradation and depletion of ubiquitin adducts | neither YWF nor LMB had a significant effect on its distribution | nuclear accumulation of the proteasome | inhibition of starvation-induced stimulation of protein breakdown | –
3 | N[C@@H](Cc1c[nH]c2cccc(F)c12)C(=O)O [L-(4-F) Trp] | – | – | – | – | – | – | – | – | – | – | – | completely inhibited the growth
